Measured values published in paper PMC10999543, “Identification of kinase modulators as host-directed therapeutics against intracellular methicillin-resistant Staphylococcus aureus” (Frontiers in Cellular and Infection Microbiology, 2024).
Read-outs that look alike come from different tables or passages of the source.

How the values were obtained:
HeLa cells = experiment: Compound screen by flow cytometry: HeLa cell count as surrogate readout of cell viability (z-scoreHeLa); assay type: cell-based, human; conditions: for cell count rep 1 / z-scoreHeLa rep 1: replicate 1; for cell count rep 2 / z-scoreHeLa rep 2: replicate 2; for cell count rep 3 / z-scoreHeLa rep 3: replicate 3; for z-scoreHeLa mean: mean of 3 replicates; on all read-outs here: test concentration or dose not given here
Summary of the method: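 The viability surrogate was the count of fixed HeLa cells by flow cytometry, converted to z-scores against DMSO controls with values deviating two-fold excluded. Before counting, cells had been infected with MRSA for 1 h and cleared of extracellular bacteria with gentamicin. They were then exposed overnight to kinase inhibitors in triplicate.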

intracellular MRSA = assay type: cell-based, Staphylococcus aureus; conditions: for %GFP+ rep 1 / z-scoreMRSA+ rep 1: replicate 1; for %GFP+ rep 2 / z-scoreMRSA+ rep 2: replicate 2; for %GFP+ rep 3 / z-scoreMRSA+ rep 3: replicate 3; for z-scoreMRSA+ mean: mean of 3 replicates; on %GFP+ rep 1: test concentration or dose not given here; on %GFP+ rep 2: test concentration or dose not given here; on %GFP+ rep 3: test concentration or dose not given here; on effect: test concentration or dose not given here; on z-scoreMRSA+ mean: test concentration or dose not given here; on z-scoreMRSA+ rep 1: test concentration or dose not given here; on z-scoreMRSA+ rep 2: test concentration or dose not given here; on z-scoreMRSA+ rep 3: test concentration or dose not given here
Summary of the method: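 Values are z-scores: GFP-positive HeLa percentage and event count per well against plate statistics, minus the mean DMSO z-score. Wells deviating two-fold from controls were left out of plate means. Infection was at a mean MOI of 6.8, with an overnight compound exposure.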

[1] = PKIS compound screen raw data, HeLa cell count
[2] = PKIS compound screen, HeLa cell count
[3] = PKIS compound screen, Yes/No call
[4] = PKIS compound screen, Yes/No call on z-scoreHeLa
[5] = PKIS compounds raw data, HeLa cell count
[6] = PKIS compound screen raw data, MRSA-infected HeLa cells
[7] = PKIS compound screen, MRSA-infected HeLa cells
[8] = PKIS compound screen, Yes/No call (effect without cell death)
[9] = PKIS compound screen, Yes/No call on z-scoreMRSA+
[10] = PKIS compounds raw data, MRSA-infected HeLa cells
[11] = compound screen, HeLa cell count
[12] = Yes/No: effect without cell death
[13] = compound screen, MRSA-infected HeLa cells

Row | SMILES | cell count rep 1 (HeLa cells; [1]) | cell count rep 2 (HeLa cells; [1]) | cell count rep 3 (HeLa cells; [1]) | cell death (HeLa cells; [3]) | z-scoreHeLa mean (HeLa cells; PKIS compound screen) | z-scoreHeLa rep 1 (HeLa cells; PKIS compound screen) | z-scoreHeLa rep 2 (HeLa cells; PKIS compound screen) | z-scoreHeLa rep 3 (HeLa cells; PKIS compound screen) | cell count rep 1 (HeLa cells; [5]) | cell count rep 2 (HeLa cells; [5]) | cell count rep 3 (HeLa cells; [5]) | %GFP+ rep 1 (intracellular MRSA; [6]) [%] | %GFP+ rep 2 (intracellular MRSA; [6]) [%] | %GFP+ rep 3 (intracellular MRSA; [6]) [%] | effect (intracellular MRSA; [3]) | hit (intracellular MRSA; [8]) | z-scoreMRSA+ mean (intracellular MRSA; PKIS compound screen) | z-scoreMRSA+ rep 1 (intracellular MRSA; PKIS compound screen) | z-scoreMRSA+ rep 2 (intracellular MRSA; PKIS compound screen) | z-scoreMRSA+ rep 3 (intracellular MRSA; PKIS compound screen) | further results
1 | CC(C)c1nc(-c2cccc(NS(=O)(=O)c3ccccc3)c2)c(-c2ccnc(Nc3ccc4c(c3)CN(C)CC4)n2)s1 [GSK1649598A] | 27349 | 20392 | 19957 | No | -0.86 | -1.22 | -0.62 | -0.73 | 4018 | 5078 | 4439 | 10.0 | 11.1 | 12.2 | No | No and Yes | -0.25 | -0.30 | -0.22 | -0.22 | z-scoreHeLa mean (HeLa cells; [2]): -0.37; z-scoreHeLa rep 1 (HeLa cells; [2]): -0.48; z-scoreHeLa rep 2 (HeLa cells; [2]): -0.84; z-scoreHeLa rep 3 (HeLa cells; [2]): 0.20; cell death (HeLa cells; [4]): No; z-scoreMRSA+ mean (intracellular MRSA; [7]): -2.36; z-scoreMRSA+ rep 1 (intracellular MRSA; [7]): -2.35; z-scoreMRSA+ rep 2 (intracellular MRSA; [7]): -2.27; z-scoreMRSA+ rep 3 (intracellular MRSA; [7]): -2.47; effect (intracellular MRSA; [9]): Yes; %GFP+ rep 1 (intracellular MRSA; [10]): 25.5%; %GFP+ rep 2 (intracellular MRSA; [10]): 24.9%; %GFP+ rep 3 (intracellular MRSA; [10]): 26.1%
2 | Cc1cc(N2CCC(NS(=O)(=O)c3ccc(F)cc3)CC2)nc(Nc2cccc(C#N)c2)n1 [GSK1653537A] | 5368 | 4678 | 5821 | – | – | – | – | – | – | – | – | 23.5 | 20.6 | 22.3 | – | – | – | – | – | – | cell death (HeLa cells; Yes/No call from z-scoreHeLa): No; z-scoreHeLa mean (HeLa cells; [11]): 0.46; z-scoreHeLa rep 1 (HeLa cells; [11]): 0.73; z-scoreHeLa rep 2 (HeLa cells; [11]): 0.29; z-scoreHeLa rep 3 (HeLa cells; [11]): 0.37; effect (intracellular MRSA; Yes/No call from z-scoreMRSA+): No; hit (intracellular MRSA; [12]): No; z-scoreMRSA+ mean (intracellular MRSA; [13]): -0.29; z-scoreMRSA+ rep 1 (intracellular MRSA; [13]): -0.41; z-scoreMRSA+ rep 2 (intracellular MRSA; [13]): -0.49; z-scoreMRSA+ rep 3 (intracellular MRSA; [13]): 0.03
3 | COc1ccc(S(=O)(=O)NC2CCN(c3cc(C)nc(Nc4cccc(C#N)c4)n3)CC2)cc1 [GSK1653539A] | 25166 | 21326 | 16886 | No | 0.33 | 0.22 | 0.92 | -0.16 | 6417 | 7400 | 5350 | 17.8 | 20.5 | 23.1 | No | No | 0.99 | 0.85 | 0.68 | 1.43 | z-scoreHeLa mean (HeLa cells; [2]): -0.64; z-scoreHeLa rep 1 (HeLa cells; [2]): -0.85; z-scoreHeLa rep 2 (HeLa cells; [2]): -0.68; z-scoreHeLa rep 3 (HeLa cells; [2]): -0.40; cell death (HeLa cells; [4]): No; z-scoreMRSA+ mean (intracellular MRSA; [7]): 0.18; z-scoreMRSA+ rep 1 (intracellular MRSA; [7]): -0.26; z-scoreMRSA+ rep 2 (intracellular MRSA; [7]): 0.30; z-scoreMRSA+ rep 3 (intracellular MRSA; [7]): 0.51; effect (intracellular MRSA; [9]): No; %GFP+ rep 1 (intracellular MRSA; [10]): 31.4%; %GFP+ rep 2 (intracellular MRSA; [10]): 29.6%; %GFP+ rep 3 (intracellular MRSA; [10]): 35.0%
4 | CC(=O)N1CCN(c2ccc(Nc3nccc(-c4sc(C(C)C)nc4-c4cccc(NS(=O)(=O)c5cccc(Cl)c5)c4)n3)cn2)CC1 [GSK1660437A] | 4478 | 3506 | 4504 | – | – | – | – | – | – | – | – | 26.9 | 24.1 | 23.6 | – | – | – | – | – | – | cell death (HeLa cells; Yes/No call from z-scoreHeLa): No; z-scoreHeLa mean (HeLa cells; [11]): -0.33; z-scoreHeLa rep 1 (HeLa cells; [11]): 0.09; z-scoreHeLa rep 2 (HeLa cells; [11]): -0.61; z-scoreHeLa rep 3 (HeLa cells; [11]): -0.46; effect (intracellular MRSA; Yes/No call from z-scoreMRSA+): No; hit (intracellular MRSA; [12]): No; z-scoreMRSA+ mean (intracellular MRSA; [13]): 0.39; z-scoreMRSA+ rep 1 (intracellular MRSA; [13]): 0.38; z-scoreMRSA+ rep 2 (intracellular MRSA; [13]): 0.36; z-scoreMRSA+ rep 3 (intracellular MRSA; [13]): 0.42
5 | Cc1cc(N2Cc3ccccc3C2)nc(Nc2ccc(S(=O)(=O)N3CCOCC3)cc2)n1 [GSK1669917A] | 5559 | 4564 | 5979 | – | – | – | – | – | – | – | – | 24.7 | 22.0 | 22.0 | – | – | – | – | – | – | cell death (HeLa cells; Yes/No call from z-scoreHeLa): No; z-scoreHeLa mean (HeLa cells; [11]): 0.51; z-scoreHeLa rep 1 (HeLa cells; [11]): 0.87; z-scoreHeLa rep 2 (HeLa cells; [11]): 0.20; z-scoreHeLa rep 3 (HeLa cells; [11]): 0.47; effect (intracellular MRSA; Yes/No call from z-scoreMRSA+): No; hit (intracellular MRSA; [12]): No; z-scoreMRSA+ mean (intracellular MRSA; [13]): -0.11; z-scoreMRSA+ rep 1 (intracellular MRSA; [13]): -0.13; z-scoreMRSA+ rep 2 (intracellular MRSA; [13]): -0.15; z-scoreMRSA+ rep 3 (intracellular MRSA; [13]): -0.06
6 | CN(C)S(=O)(=O)c1cc(-c2ccc3nccc(-c4cccc(S(N)(=O)=O)c4)c3c2)cnc1N [GSK1669921A] | – | – | – | No | -1.20 | -1.09 | -1.39 | -1.10 | 4231 | 3906 | 3857 | – | – | – | No | No | -1.31 | -1.39 | -1.10 | -1.42 | %GFP+ rep 1 (intracellular MRSA; [10]): 19.9%; %GFP+ rep 2 (intracellular MRSA; [10]): 20.3%; %GFP+ rep 3 (intracellular MRSA; [10]): 19.6%
7 | CC(C)c1nc(-c2cccc(NS(=O)(=O)c3c(F)cccc3F)c2)c(-c2ccnc(Nc3ccc(N4CCOCC4)nc3)n2)s1 [GSK1723980B] | 2167 | 1981 | 2206 | – | – | – | – | – | – | – | – | 10.5 | 11.7 | 10.2 | – | – | – | – | – | – | cell death (HeLa cells; Yes/No call from z-scoreHeLa): No; z-scoreHeLa mean (HeLa cells; [11]): -1.76; z-scoreHeLa rep 1 (HeLa cells; [11]): -1.58; z-scoreHeLa rep 2 (HeLa cells; [11]): -1.79; z-scoreHeLa rep 3 (HeLa cells; [11]): -1.92; effect (intracellular MRSA; Yes/No call from z-scoreMRSA+): Yes; hit (intracellular MRSA; [12]): Yes; z-scoreMRSA+ mean (intracellular MRSA; [13]): -3.23; z-scoreMRSA+ rep 1 (intracellular MRSA; [13]): -3.44; z-scoreMRSA+ rep 2 (intracellular MRSA; [13]): -2.65; z-scoreMRSA+ rep 3 (intracellular MRSA; [13]): -3.59
8 | CC(C)c1nc(-c2ccc(F)c(NS(=O)(=O)c3c(F)cccc3F)c2)c(-c2ccnc(Nc3ccc(N4CCOCC4)nc3)n2)s1 [GSK1804250A] | 20970 | 16426 | 18426 | No | -1.04 | -1.27 | -0.95 | -0.90 | 3939 | 4582 | 4170 | 10.3 | 10.8 | 13.4 | No | No and Yes | -0.36 | -0.40 | -0.43 | -0.25 | z-scoreHeLa mean (HeLa cells; [2]): -1.06; z-scoreHeLa rep 1 (HeLa cells; [2]): -1.56; z-scoreHeLa rep 2 (HeLa cells; [2]): -1.52; z-scoreHeLa rep 3 (HeLa cells; [2]): -0.10; cell death (HeLa cells; [4]): No; z-scoreMRSA+ mean (intracellular MRSA; [7]): -2.25; z-scoreMRSA+ rep 1 (intracellular MRSA; [7]): -2.27; z-scoreMRSA+ rep 2 (intracellular MRSA; [7]): -2.35; z-scoreMRSA+ rep 3 (intracellular MRSA; [7]): -2.14; effect (intracellular MRSA; [9]): Yes; %GFP+ rep 1 (intracellular MRSA; [10]): 25.0%; %GFP+ rep 2 (intracellular MRSA; [10]): 23.8%; %GFP+ rep 3 (intracellular MRSA; [10]): 25.9%
9 | N#Cc1ccc(CCNc2nccc(-c3cccc(CN4CCNCC4)c3)n2)cc1 [GSK2137462A] | 48589 | 40019 | 40009 | No | 0.08 | -0.12 | 0.13 | 0.23 | 5843 | 6203 | 5956 | 14.3 | 14.4 | 16.1 | No | No | -0.14 | -0.07 | -0.12 | -0.24 | cell death (HeLa cells; Yes/No call from z-scoreHeLa): No; z-scoreHeLa mean (HeLa cells; [11]): 3.25; z-scoreHeLa rep 1 (HeLa cells; [11]): 3.12; z-scoreHeLa rep 2 (HeLa cells; [11]): 2.53; z-scoreHeLa rep 3 (HeLa cells; [11]): 4.11; %GFP+ rep 1 (intracellular MRSA; [10]): 26.7%; %GFP+ rep 2 (intracellular MRSA; [10]): 25.4%; %GFP+ rep 3 (intracellular MRSA; [10]): 26.0%; effect (intracellular MRSA; Yes/No call from z-scoreMRSA+): No; hit (intracellular MRSA; [12]): No; z-scoreMRSA+ mean (intracellular MRSA; [13]): -1.32; z-scoreMRSA+ rep 1 (intracellular MRSA; [13]): -1.20; z-scoreMRSA+ rep 2 (intracellular MRSA; [13]): -1.37; z-scoreMRSA+ rep 3 (intracellular MRSA; [13]): -1.40
